What was measured:
MycN Protein = biological target: T1, MycN Protein (Homo sapiens, UniProt P04198); experiment: Degradation of MycN protein, Western blot band density in cells; type: cell-based; settings: HL-60 or SKNBE2 cells; 6 uL of compound (1 mM) added to 3 mL cells; 6 hours; Western blot band density (ImageJ)
T1 construct: endogenous in cells; host or cells: HL-60 or SKNBE2
T1 sequence (P04198 1-464): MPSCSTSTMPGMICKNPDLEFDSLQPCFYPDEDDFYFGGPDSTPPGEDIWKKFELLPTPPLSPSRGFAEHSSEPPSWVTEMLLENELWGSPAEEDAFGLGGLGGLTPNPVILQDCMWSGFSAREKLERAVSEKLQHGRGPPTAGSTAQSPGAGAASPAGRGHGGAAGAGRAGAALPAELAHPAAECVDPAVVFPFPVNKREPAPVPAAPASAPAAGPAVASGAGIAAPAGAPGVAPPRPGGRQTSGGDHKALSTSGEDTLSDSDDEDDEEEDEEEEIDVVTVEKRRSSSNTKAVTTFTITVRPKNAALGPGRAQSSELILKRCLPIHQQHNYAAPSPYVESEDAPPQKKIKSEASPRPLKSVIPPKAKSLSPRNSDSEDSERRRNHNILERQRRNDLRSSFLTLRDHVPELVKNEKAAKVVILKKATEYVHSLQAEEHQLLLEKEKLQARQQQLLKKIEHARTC
Method: (§1) In a T150 flask was plated either 2×10^6 of HL-60 (human leukemia cell line) or SKNBE2 (neuroblastoma cell line) cells in a total of 30 mL containing Roswell Park Memorial Institute (RPMI) 1640 Medium (Thermo Fisher, Cat. #11875-085), 10% Fetal Bovine Serum (FBS, Thermo Fisher: Cat. #10437-028), 1% Penicillin/streptomycin (Thermo Fisher: Cat. #10378016), and 1% Amophotericin B (Thermo Fisher, Cat. #15290026). The cells were split every 72 hours by reseeding the HL-60 or SKNBE2 cells, and the passage number was noted. It is noteworthy that cell cultures that were above 40 passages were not used, and most experiments were done with cells of less than 30 passages.
(§2) In a 6-well cell culture plate, a total of 3 mL of either 1×10^6 cells/mL of HL-60 or SKNBE2 cells were seeded, resulting in a total of 3×10^6 cells per well. To each well containing 3 mL of either HL-60 or SKNBE2 cell line was added 6 uL of MycN modulating compound (1 mM) and the resulting plate was shaken from left to right, and not swirled. After 6 hours, the cells were placed in a 15 mL falcon tube and spun at 500 Gs at 4° C. in a swinging bucket centrifuge. The medium was then carefully removed without disturbing the pellet. The pellet was then washed with 3 mLs of chilled phosphate buffered saline (PBS) and subjected to the spin cycle. PBS was then removed and the pellet was lysed in 200 uL of radioimmunoprecipitation (RIPA) lysis buffer (Thermo Fisher: Cat. #899000) that is supplemented with protease and phosphatase inhibitors (Thermo Fisher: Cat. #A32959). The cell lysate was then subjected to spinning in a centrifuge for 10 minutes at 13000G at 4° C. The supernatant was then carefully transferred to a fresh eppendorf tube without disturbing the pellet (˜180 uL). The protein concentration of the cell lysate was then determined by using a bicinchoninic acid (BCA assay) according to manufacturer's protocol (Thermo Fisher: Cat. #23227).
(§3) Cell lysate, approximately 25 ug-30 ug, was loaded per well in a 4-20% polyacrylamide gel (Biorad. Cat. #5671094). After running the dye front off of the gel, the gel was transferred to a nitrocellulose membrane (Biorad: Cat. #1704159) using the transblot turbo system (Biorad: Cat. #1704150) according to manufacturer's protocol. After transferring for 30 minutes, the membrane was blocked with 5% BSA for 1 hour at room temperature. The BSA was then washed off and the primary antibody of choice (1:500) was added, and the membrane was incubated with the primary antibody at 4° C. for overnight. The next morning, the primary antibody was removed and the membrane was washed with 1×-TBST for 10 minutes and repeated three more times. Following the last wash, a secondary antibody (Molecular Devices. Cat. #R8209 or R8208) was added at 1:5000 dilution and incubated for 1 hour at room temperature. Following the incubation with the secondary antibody, the membrane was washed with 1×-TBST for 10 minutes and repeated three more times. Following the last wash, the membrane was washed with de-ionized water twice and dried for at least two hours. Once the membrane is completely dry, the Molecular Devices Spectra Max western system was used to observe the bands. The western image was saved and the band density was measured with ImageJ software.

MycC Protein = biological target: T2, MycC Protein (Homo sapiens, UniProt P01106); experiment: Degradation of MycC protein, Western blot band density in cells; type: cell-based; settings: HL-60 or SKNBE2 cells; 6 uL of compound (1 mM) added to 3 mL cells; 6 hours; Western blot band density (ImageJ)
T2 construct: endogenous in cells; host or cells: HL-60 or SKNBE2
Method: as §1, §2, §3

T2 sequence (P01106 whole entry): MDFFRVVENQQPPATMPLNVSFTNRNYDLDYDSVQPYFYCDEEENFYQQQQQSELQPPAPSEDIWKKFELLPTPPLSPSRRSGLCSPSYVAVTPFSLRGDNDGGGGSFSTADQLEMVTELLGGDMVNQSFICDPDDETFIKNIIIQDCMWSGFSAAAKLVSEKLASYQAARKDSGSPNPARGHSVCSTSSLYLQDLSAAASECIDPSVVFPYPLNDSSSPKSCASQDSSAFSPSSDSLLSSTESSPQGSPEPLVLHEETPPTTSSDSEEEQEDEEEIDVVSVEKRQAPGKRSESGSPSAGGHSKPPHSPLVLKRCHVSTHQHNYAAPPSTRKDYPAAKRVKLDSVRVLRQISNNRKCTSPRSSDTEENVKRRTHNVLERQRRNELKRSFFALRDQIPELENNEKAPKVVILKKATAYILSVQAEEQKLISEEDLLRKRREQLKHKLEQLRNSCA

Compound	Dmax at 2 µM (MycN Protein) [%]	Dmax at 2 µM (MycC Protein) [%]
COCCNC(=O)NC1CCC(Nc2nccc(Nc3cc(C4CCCC4)[nH]n3)n2)CC1 [Compound 43, 1-((1R,4R)-4-((4-((5-cyclopentyl-1H-pyrazol-3-yl)amino)pyrimidin-2-yl)amino)cyclohexyl)-3-(2-methoxyethyl)urea]	20 to 49	20 to 49
O=C(N[C@@H]1CCC[C@@H](C(F)(F)F)C1)N[C@H]1CC[C@H](Nc2nccc(Nc3cc(C4CCCC4)[nH]n3)n2)CC1 [Compound 119]	< 20	< 20
O=C(NC1CCN(Cc2ccccn2)CC1)N[C@H]1CC[C@H](Nc2nccc(Nc3cc(C4CCCC4)[nH]n3)n2)CC1 [Compound 72, 1-((1R,4R)-4-((4-((5-cyclopentyl-1H-pyrazol-3-yl)amino)pyrimidin-2-yl)amino)cyclohexyl)-3-(1-(pyridin-2-ylmethyl)piperidin-4-yl)urea]	< 20	20 to 49
O=C(N[C@@H]1CCC[C@H](C(F)(F)F)C1)N[C@H]1CC[C@H](Nc2nccc(Nc3cc(C4CCCC4)[nH]n3)n2)CC1 [Compound 35, 1-((1R,4R)-4-((4-((5-cyclopentyl-1H-pyrazol-3-yl)amino)pyrimidin-2-yl)amino)cyclohexyl)-3-((1R,3S/1S,3R)-3-(trifluoromethyl)cyclohexyl)urea]	80 to 100	20 to 49
O=C(Nc1cccc(C(F)(F)F)c1)N[C@H]1C[C@H](Nc2nccc(Nc3cc(C4CCCC4)[nH]n3)n2)C1 [Compound 96]	20 to 49	20 to 49
O=C(NC1CC(c2ccccc2)C1)N[C@H]1CC[C@H](Nc2nccc(Nc3cc(C4CCOC4)[nH]n3)n2)CC1 (stereo partly drawn) [Compound 102, 1-((1R,3R)-3-phenylcyclobutyl)-3-((1,4R)-4-((4-((5-(tetrahydrofuran-3-yl)1H-pyrazol-3-yl)amino)pyrimidine-2-yl)amino)cyclohexyl)urea]	< 20	< 20
CN(c1nccc(Nc2cc(C3CCC(F)(F)C3)[nH]n2)n1)[C@H]1CC[C@H](NC(=O)NC2Cc3ccc(C#N)cc3C2)CC1 (stereo partly drawn) [Compound 149, 1-(5-cyano-2,3-dihydro-1H-inden-2-yl)-3-((1R,4R)-4-((4-((5-(3,3-difluorocyclopentyl)-1H-pyrazol-3-yl)amino)pyrimidin-2-yl)(methyl)amino)cyclohexyl)urea]	50 to 79	< 20
O=C(NC1Cc2ccncc2C1)N[C@H]1CC[C@H](Nc2nccc(Nc3cc(C4CCCC4)[nH]n3)n2)CC1 (stereo partly drawn) [Compound 101, 1-((1R,4R)-4-((4-((5-cyclopentyl-1H-pyrazol-3-yl)amino)pyrimidin-2-yl)amino)cyclohexyl)-3-(6,7-dihydro-5H-cyclopenta[c]pyridin-6-yl)urea]	< 20	80 to 100
C/N=C(\Nc1cccc(C(F)(F)F)c1)N[C@H]1CC[C@H](Nc2nccc(Nc3cc(C4CCCC4)[nH]n3)n2)CC1 [Compound 83]	< 20	< 20
O=C(NC1CCC(N2CCOC2=O)CC1)N[C@H]1CC[C@H](Nc2nccc(Nc3cc(C4CCCC4)[nH]n3)n2)CC1 (stereo partly drawn) [Compound 37, 1-((1R,4R)-4-((4-((5-cyclopentyl-1H-pyrazol-3-yl)amino)pyrimidin-2-yl)amino)cyclohexyl)-3-(4-(2-oxooxazolidin-3-yl)cyclohexyl)urea]	< 20	< 20
O=C(NC1CS(=O)(=O)C1)N[C@H]1CC[C@H](Nc2nccc(Nc3cc(C4CCCC4)[nH]n3)n2)CC1 [Compound 34]	< 20	50 to 79
CO[C@H]1C[C@H](NC(=O)NC2CCC(Nc3nccc(Nc4cc(C5CCCC5)[nH]n4)n3)CC2)C1 (stereo partly drawn) [Compound 44, 1-((1R,4R)-4-((4-((5-cyclopentyl-1H-pyrazol-3-yl)amino)pyrimidin-2-yl)amino)cyclohexyl)-3-((1R,3R)-3-methoxycyclobutyl)urea]	< 20	20 to 49
CN(c1nccc(Nc2cc(C3CC3)[nH]n2)n1)[C@H]1CC[C@H](NC(=O)NC2Cc3ccccc3C2)CC1 [Compound 150, 1-((1R,4R)-4-((4-((5-cyclopropyl-1H-pyrazol-3-yl)amino)pyrimidin-2-yl)(methyl)amino)cyclohexyl)-3-(2,3-dihydro-1H-inden-2-yl)urea]	80 to 100	80 to 100
O=C(NC1CCC(Nc2nccc(Nc3cc(C4CCCC4)[nH]n3)n2)CC1)NC1CCCN(C2CC2)C1 [Compound 60, 1-((1R,4R)-4-((4-((5-cyclopentyl-1H-pyrazol-3-yl)amino)pyrimidin-2-yl)amino)cyclohexyl)-3-(1-cyclopropylpiperidine-3-yl)urea]	< 20	50 to 79
O=C(NC1CCN(CCO)CC1)N[C@H]1CC[C@H](Nc2nccc(Nc3cc(C4CCCC4)[nH]n3)n2)CC1 [Compound 70, 1-((1R,4R)-4-((4-((5-cyclopentyl-1H-pyrazol-3-yl)amino)pyrimidin-2-yl)amino)cyclohexyl)-3-(1-(2-hydroxyethyl)piperidin-4-yl)urea]	< 20	20 to 49
CS(=O)(=O)c1ccc2c(c1)CC(NC(=O)N[C@H]1CC[C@H](Nc3nccc(Nc4cc(C5CCCC5)[nH]n4)n3)CC1)C2 (stereo partly drawn) [Compound 3, 1-((1R,4R)-4-((4-((5-cyclopentyl-1H-pyrazol-3-yl)amino)pyrimidin-2-yl)amino)cyclohexyl)-3-(5-(methylsulfonyl)-2,3-dihydro-1H-inden-2-yl)urea]	20 to 49	50 to 79
O=C(NC1CCC2(CC1)COC2)N[C@H]1CC[C@H](Nc2nccc(Nc3cc(C4CCCC4)[nH]n3)n2)CC1 [Compound 49, 1-((1R,4R)-4-((4-((5-cyclopentyl-1H-pyrazol-3-yl)amino)pyrimidin-2-yl)amino)cyclohexyl)-3-(2-oxaspiro[3.5]nonan-7-yl)urea]	< 20	< 20
O=C(NC1CCCC(N2CCCC2=O)C1)N[C@H]1CC[C@H](Nc2nccc(Nc3cc(C4CCCC4)[nH]n3)n2)CC1 (mixture of isomers) [Compound 27, 1-((1R,4R)-4-((4-((5-cyclopentyl-1H-pyrazol-3-yl)amino)pyrimidin-2-yl)amino)cyclohexyl)-3-(3-(2-oxopyrrolidin-1-yl)cyclohexyl)urea]	< 20	< 20
CO[C@H]1c2ccccc2C[C@H]1NC(=O)N[C@H]1CC[C@H](Nc2nccc(Nc3cc(C)[nH]n3)n2)CC1 [Compound 105, 1-((1S,2R)-1-methoxy-2,3-dihydro-1H-inden-2-yl)-3-((1R,4R)-4-((4-((5-methyl-1H-pyrazol-3-yl)amino)pyrimidin-2-yl)amino)cyclohexyl)urea]	< 20	< 20
[H]/N=C(\Nc1cccc(C(F)(F)F)c1)N[C@H]1CC[C@H](Nc2nccc(Nc3cc(C4CCCC4)[nH]n3)n2)CC1 [Compound 81, 1-((1R,4R)-4-((4-((5-cyclopentyl-1H-pyrazol-3-yl)amino)pyrimidin-2-yl)amino)cyclohexyl)-3-(3-(trifluoromethyl)phenyl)guanidine]	< 20	80 to 100
O=C(NC1COC1)N[C@H]1CC[C@H](Nc2nccc(Nc3cc(C4CCCC4)[nH]n3)n2)CC1 [Compound 46]	20 to 49	< 20

From US20210369710A1, “MODULATORS OF MYC FAMILY PROTO-ONCOGENE PROTEIN” (Nalo Therapeutics, priority 2019, published 2021)
